# Measured values as given in patent publication US12053452B2 (priority 2021, dated 2024).
# “Also recorded” adds a separate entry of the source. Where two headings read alike, the source gives them in different places.
# What was measured:
# C57 mice [1] = assay: Novelty preference test, C57; type: in vivo
# Description: (§1) This assay was conducted in adult male C57 and BTBR mice (n=6 per group) in a dedicated conditioning room where ambient light, sound, and human contact were tightly controlled. Social preference chambers consist of two polycarbonate boxes (13.5 cm wide×22.5 cm tall×31.0 cm deep), floored with rough-textured black ABS plastic, and connected to one another by a 1.25″ PVC T-junction. An infrared photobeam emitter/detector array is mounted at each intersection of the T-junction and each preference compartment, and as a mouse traversed the apparatus, it would break the photobeam upon entry to or exit from each preference compartment. Beam breaks started or stopped a counter on an interfaced computer, allowing automated collection of time spent in each compartment. At the end of each test, data were reported as time (in seconds) spent in each compartment, the number of entries into each compartment, and the average time spent in each compartment following an entry. Social preference tests were conducted in an iterative manner, with each test subject completing four distinct phases as described below. Between testing sessions, chambers were sanitized by wiping the insides with a disinfectant product provided by the UAMS Department of Laboratory Animal Medicine. At the end of the week (upon completion of all phases of the procedure), each apparatus was disassembled and all parts were sanitized. No food or water were available during social preference sessions, but were available in the home cage immediately afterwards.
# A single novelty preference session occurred the day after the habituation test, where one compartment contained an empty wire mesh cup and the other compartment contained an identical wire mesh cup with a novel dummy mouse inside. The position of the dummy mouse (left or right compartment) was counterbalanced across subjects. Dummy mice were constructed from 2.5″ lengths of white ¾″ PVC pipe, with a zip tie attached to one end (to mimic a tail) and two red dots drawn on the other end (to mimic eyes.) During this session, mice were weighed, administered an injection, and returned to their home cage for a 30 min pretreatment period. Mice were then introduced into the T-junction and allowed to explore both preference compartments for 15 minutes. These tests were conducted as a procedural control to ensure that any observed drug effects were not simply due to enhancement of the innate novelty preference of mice. Novelty preference sessions always occurred on Tuesdays or Wednesdays to prevent any weekend testing.
# C57 mice [2] = assay: Social preference procedure: compartment entries (proxy for locomotor stimulant effects), C57; type: in vivo
# Description: as §1
# (§2) Quantification of total entries into the preference compartments provided a proxy measurement for locomotor stimulant effects of the various doses of the various test drugs. This established a limit to the drug doses that can be tested in the social preference procedure, as induction of locomotor stimulant effects confounds preference assessments (because mice stop attending to the social stimuli in each compartment and instead spend their time engaged in locomotor behavior.) Motor activity varied across the distinct phases of social preference testing, in part because the habituation session is twice as long (30 minutes) as the novelty, sociability, and social novelty tests (15 minutes each), but also because mice emitted high levels of exploratory behavior in novel environments. Thus, as familiarity with the test apparatus increased over successive exposures to the chambers, the number of entries decreased.
# (§3) (Note that entries were collected for every test, but drug effects on entries during earlier phases may be less reliable due to the confounding influence of changing familiarity with the apparatus across phases.)
# C57 mice [3] = assay: Sociability test, C57; type: in vivo
# Description: as §1
# A single sociability session occurred the day after the novelty preference test, where one compartment contained a wire mesh cup with a dummy mouse inside while the other compartment contained a male NIH Swiss stranger mouse inside the previously empty cup. […] The position of the dummy mouse (left or right compartment) remained the same for each subject as during the novelty test the day before, thereby counterbalancing the position of the stranger mouse across subjects. NIH Swiss stranger mice were similar in mass and appearance to the dummy PVC mice, and were housed separately from the experimental subjects (C57 and BTBR mice) in the colony facility. The first time the experimental subjects ever encountered the stranger mice was when they entered the compartment where they were contained. During this session, mice were weighed, administered the same injection as the day before, and returned to their home cage for a 30 min pretreatment period. Mice were then introduced into the T-junction and allowed to explore both preference compartments for 15 minutes. Sociability tests always occurred on Wednesdays or Thursdays to prevent any weekend testing.
# BTBR mice [4] = assay: Radiotelemetry of locomotor activity, BTBR; type: in vivo; settings: for pattern of locomotor activity / dose-effect curve: any dose; for locomotor activity: 0 to 240 minutes
# Description: The radiotelemetry assay was conducted in adult male C57 and BTBR mice (n=6 per group) in a dedicated testing room where ambient light, sound, and human contact were tightly controlled.
# Prior to surgical implantation of radiotelemetry probes, mice received 3 mg/kg meloxicam (IP), and anesthesia was induced with 4% inhaled isoflurane and maintained with 1-3% isoflurane (as needed) throughout the procedure at a flow rate of 1.5 litres/minute. The abdominal area of each animal was treated with depilatory cream, then sanitized with 3 alternating scrubs with iodine and alcohol. A rostral-caudal cut approximately 1.5 cm in length was made with sterile skin scissors, providing access to the intraperitoneal cavity. A cylindrical glass-encapsulated radiotelemetry probe (model ER-4000 E-Mitter, Mini Mitter, Bend, OR, USA) was then inserted. These probes measure 15.5 mm×6.5 mm and weigh approximately 1 gram. Incisions were closed (skin layer and muscle layer separately) using reverse cutting 5-0 Vicryl absorbable sutures for the muscle layer and 5-0 nylon suture material for the skin layer. Surgeries were carried out at least 7 days before initiation of experimental conditions, allowing time for incisions to heal and for animals to recover normal body weights. Following surgery, all implanted mice were individually housed in Plexiglas cages within the telemetry room for the duration of all experiments. Implanted transmitters produce activity- and temperature-modulated signals which are sent to a receiver (model ER-4000 Receiver, Mini Mitter Co., Inc.) underneath each cage. Following use, telemetry probes were removed from carcasses, wiped with alcohol swabs, and stored in the disinfectant solution until re-use.
# At least 7 days after surgical implantation of radiotelemetry probes, mice in their individual home cages were placed atop a telemetry energizer/receiver, which powered probes and transmitted their data to an interfaced computer. Upon initiation of an experimental session, the computer collected two data updates from the probes at 5 min intervals: core temperature (in ° C.) on one channel, and locomotor counts (in arbitrary units, depending on the relative position of the probe atop the receiver) on the other. After at least 60 minutes of baseline data collection, mice were removed from their cages, injected with saline or a given dose of a specific drug, then returned to the home cage 24 hours of data collection.
# Food and water were always freely available in the home cage. Mice were injected with ascending doses of a given drug, with at least 48 hours separating doses. Because there are few studies of drug effects in BTBR mice, the first drug dose tested occasionally elicited unexpectedly large locomotor effects in these animals. In these cases, smaller drug doses were tested next, after a washout period of at least one full day.
# [5] = phase 3 trials, MDMA-assisted psychotherapy; cited from earlier work
# [6] = rats, cited from earlier work; for Cmax (maximum MDMA concentration): 2 mg/kg; for Cmax: 10 mg/kg
# BTBR mice [7] = assay: Social preference procedure: compartment entries (proxy for locomotor stimulant effects), BTBR; type: in vivo
# Description: as §1, §2, §3
# [8] = 3.0 mg/kg IP, social novelty test
structure (smiles),measurement,setting,value
"CNC(C)Cc1ccc2c(c1)OCO2 (racemic) [racemic MDMA, 1-(1,3-benzodioxol-5-yl)-N-methylpropan-2-amine]",novelty preference (time spent with the dummy mouse),C57 mice [1]; 3.0 mg/kg IP,had no effects on locomotor activity (see FIG. 4) or novelty preference
same,novelty preference (time spent with the dummy mouse),C57 mice [1]; 5.6 mg/kg IP,elicited avoidance of the dummy mouse
same,compartment entries (locomotor stimulant effect),C57 mice [2]; [8],had no effects on locomotor activity
same,compartment entries (locomotor stimulant effect),C57 mice [2]; various doses IP,dose-response stimulant effect
same,sociability (time spent with the stranger mouse vs dummy),"C57 mice [3]; 3.0 mg/kg IP, 3 mg/kg",moderate preference for the stranger over the dummy
same,sociability (time spent with the stranger mouse vs dummy),"C57 mice [3]; 3.0 mg/kg IP, listed as racemic (50/50) MDMA, 3 mg/kg",elicit significant effects on sociability
same,sociability (time spent with the stranger mouse vs dummy),C57 mice [3]; various doses IP,dose-dependent increase in time spent with the stranger mouse
same,pattern of locomotor activity / dose-effect curve,BTBR mice [4],No evidence of motor stereotypy; also recorded: does not follow this biphasic pattern
same,efficacy to treat Post Traumatic Stress Disorder (PTSD),[5],demonstrated efficacy
same,Cmax (maximum MDMA concentration),[6]; intraperitoneal,210 ng/mL
same,Cmax (maximum MDMA concentration),[6]; oral,46 ng/mL
same,Cmax (maximum MDMA concentration),[6]; subcutaneous,196 ng/mL
same,Cmax,[6]; intraperitoneal,2257 ng/mL
same,Cmax,[6]; oral,966 ng/mL
same,Cmax,[6]; subcutaneous,1130 ng/mL
same,compartment entries (locomotor stimulant effect),BTBR mice [7]; [8],increased the number of entries
same,compartment entries (locomotor stimulant effect),"BTBR mice [7]; 5.6 mg/kg IP, social novelty test",~100 entries
same,compartment entries (locomotor stimulant effect),BTBR mice [7]; all tested doses IP,dose-response stimulant effect
"CN[C@@H](C)Cc1ccc2c(c1)OCO2 [S(+)-MDMA, (2S)-1-(1,3-benzodioxol-5-yl)-N-methylpropan-2-amine]",novelty preference (time spent with the dummy mouse),C57 mice [1]; various doses IP,no systematic effects on novelty preference
same,compartment entries (locomotor stimulant effect),C57 mice [2]; various doses IP,dose-response stimulant effect
same,sociability (time spent with the stranger mouse vs dummy),C57 mice [3]; 3.0 mg/kg IP,not different from saline
same,sociability (time spent with the stranger mouse vs dummy),C57 mice [3]; various doses IP,no systematic effects on sociability
same,locomotor activity,BTBR mice [4]; 10 mg/kg IP,elicited a substantially large stimulation in motor activity
same,locomotor activity,BTBR mice [4]; 30 mg/kg IP,elicited a large stimulation in motor activity
same,pattern of locomotor activity / dose-effect curve,BTBR mice [4],No evidence of motor stereotypy
same,compartment entries (locomotor stimulant effect),"BTBR mice [7]; 3.0 mg/kg IP, social novelty test, 3 mg/kg",roughly equivalent entries to 3.0 mg/kg racemic MDMA
same,compartment entries (locomotor stimulant effect),"BTBR mice [7]; 3.0 mg/kg IP, social novelty test, listed as S-MDMA, 3 mg/kg",increased the number of entries
same,compartment entries (locomotor stimulant effect),BTBR mice [7]; all tested doses IP,dose-response stimulant effect
